US20230133958A1, “COMPOUNDS USEFUL IN MODULATING EGFR AND PI3K” (Mekanistic Therapeutics LLC, priority 2021, published 2023)

Legend:
Type in all cases: cell-based
SR = test: NCI COMPARE panel (SRB growth inhibition), SR; details: Homo sapiens, Leukemia, 48 h
Method: (§1) The human tumor cell lines of the cancer screening panel are grown in RPMI 1640 medium containing 5% fetal bovine serum and 2 mM L-glutamine. For a typical screening experiment, cells are inoculated into 96 well microtiter plates in 100 µL at plating densities ranging from 5,000 to 40,000 cells/well depending on the doubling time of individual cell lines. After cell inoculation, the microtiter plates are incubated at 37° C., 5% CO2, 95% air and 100% relative humidity for 24 h prior to addition of experimental drugs.
(§2) After 24 h, two plates of each cell line are fixed in situ with TCA, to represent a measurement of the cell population for each cell line at the time of drug addition (Tz). Experimental drugs are solubilized in dimethyl sulfoxide at 400-fold the desired final maximum test concentration and stored frozen prior to use. […]
(§3) Following drug addition, the plates are incubated for an additional 48 h at 37° C., 5 % CO2, 95% air, and 100% relative humidity. […] Bound stain is subsequently solubilized with 10 mM trizma base, and the absorbance is read on an automated plate reader at a wavelength of 515 nm. […] Using the seven absorbance measurements [time zero, (Tz), control growth, (C), and test growth in the presence of drug at the five concentration levels (Ti)], the percentage growth is calculated at each of the drug concentrations levels. Percentage growth inhibition is calculated as: […]

NCI-H226 = test: NCI COMPARE panel (SRB growth inhibition), NCI-H226; details: Homo sapiens; Non-Small Cell Lung Cancer, NCI-H226, 48 h
Method: as §1, §2, §3

OVCAR-5 = test: NCI COMPARE panel (SRB growth inhibition), OVCAR-5; details: Homo sapiens; Ovarian Cancer, OVCAR-5, 48 h
Method: as §1, §2, §3

K-562 = test: NCI COMPARE panel (SRB growth inhibition), K-562; details: Homo sapiens, K562; Leukemia, K-562, 48 h
Method: as §1, §2, §3

DU-145 = test: NCI COMPARE panel (SRB growth inhibition), DU-145; details: Homo sapiens; Prostate Cancer, DU-145, 48 h
Method: as §1, §2, §3

SK-MEL-5 = test: NCI COMPARE panel (SRB growth inhibition), SK-MEL-5; details: Homo sapiens; Melanoma, SK-MEL-5, 48 h
Method: as §1, §2, §3

NCI-H460 = test: NCI COMPARE panel (SRB growth inhibition), NCI-H460; details: Homo sapiens; Non-Small Cell Lung Cancer, NCI-H460, 48 h
Method: as §1, §2, §3

MALME-3M = test: NCI COMPARE panel (SRB growth inhibition), MALME-3M; details: Homo sapiens, Melanoma, 48 h
Method: as §1, §2, §3

UO-31 = test: NCI COMPARE panel (SRB growth inhibition), UO-31; details: Homo sapiens; Renal Cancer, UO-31, 48 h
Method: as §1, §2, §3

TK-10 = test: NCI COMPARE panel (SRB growth inhibition), TK-10; details: Homo sapiens; Renal Cancer, TK-10, 48 h
Method: as §1, §2, §3

SK-OV3 = test: NCI COMPARE panel (SRB growth inhibition), SK-OV3; details: Homo sapiens, SK-OV-3; Ovarian Cancer, SK-OV3, 48 h
Method: as §1, §2, §3

MCF7 = test: NCI COMPARE panel (SRB growth inhibition), MCF7; details: Homo sapiens; Breast Cancer, MCF7, 48 h
Method: as §1, §2, §3

HCT-15 = test: NCI COMPARE panel (SRB growth inhibition), HCT-15; details: Homo sapiens; Colon Cancer, HCT-15, 48 h
Method: as §1, §2, §3

A549/ATCC = test: NCI COMPARE panel (SRB growth inhibition), A549/ATCC; details: Homo sapiens, Non-Small Cell Lung Cancer, 48 h
Method: as §1, §2, §3

OVCAR-4 = test: NCI COMPARE panel (SRB growth inhibition), OVCAR-4; details: Homo sapiens; Ovarian Cancer, OVCAR-4, 48 h
Method: as §1, §2, §3

HT29 = test: NCI COMPARE panel (SRB growth inhibition), HT29; details: Homo sapiens, HT-29; Colon Cancer, HT29, 48 h
Method: as §1, §2, §3

SW-620 = test: NCI COMPARE panel (SRB growth inhibition), SW-620; details: Homo sapiens; Colon Cancer, SW-620, 48 h
Method: as §1, §2, §3

786-0 = test: NCI COMPARE panel (SRB growth inhibition), 786-0; details: Homo sapiens; Renal Cancer, 786-0, 48 h
Method: as §1, §2, §3

ACHN = test: NCI COMPARE panel (SRB growth inhibition), ACHN; details: Homo sapiens, Renal Cancer, 48 h
Method: as §1, §2, §3

UACC-62 = test: NCI COMPARE panel (SRB growth inhibition), UACC-62; details: Homo sapiens; Melanoma, UACC-62, 48 h
Method: as §1, §2, §3

OVCAR-8 = test: NCI COMPARE panel (SRB growth inhibition), OVCAR-8; details: Homo sapiens; Ovarian Cancer, OVCAR-8, 48 h
Method: as §1, §2, §3

SF-268 = test: NCI COMPARE panel (SRB growth inhibition), SF-268; details: Homo sapiens; CNS Cancer, SF-268, 48 h
Method: as §1, §2, §3

T-47D = test: NCI COMPARE panel (SRB growth inhibition), T-47D; details: Homo sapiens, T47D, Breast Cancer, 48 h
Method: as §1, §2, §3

HL-60(TB) = test: NCI COMPARE panel (SRB growth inhibition), HL-60(TB); details: Homo sapiens, Leukemia, 48 h
Method: as §1, §2, §3

Structure (SMILES)	GI50 (SR)	GI50 (NCI-H226)	GI50 (OVCAR-5)	GI50 (K-562)	GI50 (DU-145)	GI50 (SK-MEL-5)	GI50 (NCI-H460)	GI50 (MALME-3M)	GI50 (UO-31)	GI50 (TK-10)	GI50 (SK-OV3)	GI50 (MCF7)	GI50 (HCT-15)	GI50 (A549/ATCC)	GI50 (OVCAR-4)	GI50 (HT29)	GI50 (SW-620)	GI50 (786-0)	GI50 (ACHN)	GI50 (UACC-62)	also measured
CS(=O)(=O)Nc1cc(-c2ccc3ncnc(Nc4cccc(Cl)c4F)c3c2)cnc1Cl [Compound 6, N-[2-chloro-5-[4-(3-chloro-2-fluoro-anilino)quinazolin-6-yl]-3-pyridyl] methanesulfonamide]	> 250 nM	> 250 nM	125 to 250 nM	> 250 nM	125 to 250 nM	125 to 250 nM	> 250 nM	≤ 75 nM	≤ 75 nM	≤ 75 nM	75 to 125 nM	≤ 75 nM	125 to 250 nM	125 to 250 nM	> 250 nM	125 to 250 nM	> 250 nM	125 to 250 nM	125 to 250 nM	≤ 75 nM	GI50 (OVCAR-8): > 250 nM; GI50 (SF-268): 125 to 250 nM; GI50 (T-47D): ≤ 75 nM; GI50 (HL-60(TB)): 75 to 125 nM
CS(=O)(=O)Nc1cc(-c2ccc3ncc(C#N)c(Nc4cccc(Cl)c4F)c3c2)cnc1Cl [Compound 10, N-[2-chloro-5-[4-(3-chloro-2-fluoro-anilino)-3-cyano-6-quinolyl]-3-pyridyl]methanesulfonamide]	≤ 75 nM	> 250 nM	> 250 nM	75 to 125 nM	125 to 250 nM	≤ 75 nM	> 250 nM	75 to 125 nM	125 to 250 nM	75 to 125 nM	> 250 nM	≤ 75 nM	75 to 125 nM	> 250 nM	> 250 nM	> 250 nM	≤ 75 nM	> 250 nM	> 250 nM	75 to 125 nM	GI50 (OVCAR-8): > 250 nM; GI50 (SF-268): 75 to 125 nM; GI50 (T-47D): 125 to 250 nM; GI50 (HL-60(TB)): ≤ 75 nM
